Here are results for 24 compounds from the SangsterLogP compilation.

Broadly, the logP is the decadic logarithm of the partition coefficient of the neutral form, usually between octanol and water. Read a low logP as lower lipophilicity.

The compound `COc1ccc(S(=O)(=O)NC(=O)C(C)C)c(N)c1` returned a logP of 1.58.
The figure for `CC(C)C(=O)Nc1ccccc1S(N)(=O)=O` is 0.97; for `CCC(CC)C(=O)Nc1cc(C(F)(F)F)ccc1S(N)(=O)=O` it is 3.06; for `CC(C)C(=O)NS(=O)(=O)c1cc([N+](=O)[O-])cc(C(F)(F)F)c1` it is 3.1.
The figure for `COc1ccc(S(N)(=O)=O)c(NC(=O)C(C)C)c1` is 1.37; for `Cc1ccc(S(N)(=O)=O)c(NC(=O)C(C)C)c1` it is 1.45; for `CCC(CC)C(=O)Nc1ccccc1S(N)(=O)=O` it is 1.62.
The figure for `CC(C)C(=O)Nc1cc(Cl)ccc1S(N)(=O)=O` is 1.87; for `CCC(CC)C(=O)NS(=O)(=O)c1ccc(OC)cc1N` it is 2.03; for `Cc1ccc(S(=O)(=O)NC(=O)C(C)C)c(N)c1` it is 1.65.
With `CCC(CC)C(=O)Nc1cc(OC)ccc1S(N)(=O)=O`, the logP is 2.01.
The figure for `Cc1ccc(S(=O)(=O)NC(=O)C(C)C)c([N+](=O)[O-])c1` is 2.17; for `CCC(CC)C(=O)NS(=O)(=O)c1ccc(C)cc1[N+](=O)[O-]` it is 2.67; for `CC(C)C(=O)NS(=O)(=O)c1ccccc1[N+](=O)[O-]` it is 1.72.
On to `CCC(CC)C(=O)NS(=O)(=O)c1cc([N+](=O)[O-])cc(C(F)(F)F)c1`, for which the log partition coefficient (logP) turned out to be 3.57.
For `CCC(CC)C(=O)NS(=O)(=O)c1ccc(Cl)cc1N`, the logP came out at 2.53.
To `CCC(CC)C(=O)NS(=O)(=O)c1ccc(C)cc1N` belongs 2.18; to `CCC(CC)C(=O)Nc1cc(Cl)ccc1S(N)(=O)=O`, 2.55.
To `CCC(CC)C(=O)NS(=O)(=O)c1ccccc1[N+](=O)[O-]` belongs 2.17; to `CCC(CC)C(=O)NS(=O)(=O)c1ccccc1N`, 1.64.
To `CC(C)C(=O)Nc1ccc(C(F)(F)F)cc1S(N)(=O)=O` belongs 2.45.
Regarding `CC(C)C(=O)NS(=O)(=O)c1ccccc1N`, the logP turned out to be 1.17.
To `CC(C)C(=O)NS(=O)(=O)c1ccc(C(F)(F)F)cc1N` belongs 2.56; to `CCC(CC)C(=O)Nc1cc(C)ccc1S(N)(=O)=O`, 2.13.
